Reference: article PMC8389915, “Synthesis and Preclinical Validation of Novel Indole Derivatives as a GPR17 Agonist for Glioblastoma Treatment” (Journal of Medicinal Chemistry, 2021)

Biological target: G protein-coupled receptor 17 (GPR17) (Homo sapiens, UniProt Q13304)
Sequence (Q13304 whole entry): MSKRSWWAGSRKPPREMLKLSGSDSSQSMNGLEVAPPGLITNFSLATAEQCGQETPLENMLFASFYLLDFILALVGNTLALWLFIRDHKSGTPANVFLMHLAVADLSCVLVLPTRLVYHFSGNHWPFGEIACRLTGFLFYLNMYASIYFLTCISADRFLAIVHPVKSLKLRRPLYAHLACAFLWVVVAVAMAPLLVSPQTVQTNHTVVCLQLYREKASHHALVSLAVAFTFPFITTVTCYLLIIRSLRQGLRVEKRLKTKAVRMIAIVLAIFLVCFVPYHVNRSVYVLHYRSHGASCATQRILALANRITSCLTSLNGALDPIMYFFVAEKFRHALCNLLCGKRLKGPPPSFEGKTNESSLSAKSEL

Compound `O=C(Nc1ccccc1)Oc1cc(OC(=O)Nc2ccccc2)c2c(c1)N(C(c1ccc(F)cc1)c1cccc(Cl)c1O)CC2` (stereo not shown) [CHBC, 1-((3-chloro-2-hydroxyphenyl)(4-fluorophenyl)methyl)indoline-4,6-diyl bis(phenylcarbamate)] has an EC50 of 19.2 µM.
